For four compounds, IC50 results are on record in BindingDB's records for doi:10.3109/14756366.2011.599065 (Wuhan Textile University, 2012).

Some results are limits rather than exact numbers.

The target in experiment [1] is Urease subunit alpha (Helicobacter pylori (strain ATCC 700392 / 26695), UniProt P69997). The experiment is described as follows: Urease Inhibition Assay. The settings on record: pH 7.4; 4 °C. The method, then:
(§1) Briefly, 50 mL broth cultures (2.0 × 10^8 CFU/mL) were centrifuged (5000g, 4°C)to collect the bacteria, and after washing twice with phosphate-buffered saline (pH 7.4), the H. pylori precipitation was stored at −80°C. H. pylori was returnedto room temperature, and after the addition of 3 mL of distilled water and protease inhibitors, sonication was performed for 60 s. Following centrifugation(15,000g, 4°C), the supernatant was desalted through SephadexG-25 column (PD-10 columns, Amersham-Pharmacia Biotech, Uppsala, Sweden). The resultant crude urease solution was added to an equal volume of glycerol and stored at 4°C until use in the experiment. The mixture, containing 25 μL (4U) of H. pylori urease (100 mM HEPES, pH 6.8) and 25 μL of the test compounds of various concentrations, was preincubated for 3 h at room temperature in a 96-well assay plate. After preincubation, 0.2 mL of 100 mM HEPES (pH 6.8) buffer containing 500 mM urea and 0.002% phenol red were added and incubated at 37°C.

The target in experiment [2] is Urease subunit alpha (Helicobacter pylori (strain J99 / ATCC 700824) (Campylobacter pylori J99), UniProt I0ZGT0+I0ZGT1). The experiment is described as follows: Urease Inhibition Assay. The conditions noted are these: pH 7.4; 4 °C. The method, then: as §1
Urease subunit alpha (Helicobacter pylori (strain J99 / ATCC 700824) (Campylobacter pylori J99), UniProt I0ZGT0+I0ZGT1), sequence (I0ZGT1 whole entry): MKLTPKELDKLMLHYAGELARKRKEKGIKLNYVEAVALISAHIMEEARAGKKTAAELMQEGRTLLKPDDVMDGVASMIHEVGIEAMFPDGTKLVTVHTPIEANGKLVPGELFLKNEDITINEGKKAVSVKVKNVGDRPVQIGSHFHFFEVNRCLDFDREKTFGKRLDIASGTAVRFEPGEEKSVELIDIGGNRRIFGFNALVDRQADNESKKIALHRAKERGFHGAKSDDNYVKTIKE
Urease subunit alpha (Helicobacter pylori (strain J99 / ATCC 700824) (Campylobacter pylori J99), UniProt I0ZGT0+I0ZGT1), sequence (I0ZGT0 whole entry): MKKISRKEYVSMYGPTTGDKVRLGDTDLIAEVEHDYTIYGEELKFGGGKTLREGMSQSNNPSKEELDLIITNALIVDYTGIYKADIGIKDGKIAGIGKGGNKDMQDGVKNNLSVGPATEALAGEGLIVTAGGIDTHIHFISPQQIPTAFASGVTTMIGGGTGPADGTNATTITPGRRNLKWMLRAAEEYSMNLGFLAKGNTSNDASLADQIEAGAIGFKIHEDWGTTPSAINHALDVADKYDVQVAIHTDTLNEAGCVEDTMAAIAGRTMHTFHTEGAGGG

Urease subunit alpha (Helicobacter pylori (strain ATCC 700392 / 26695), UniProt P69997), sequence (P14916 whole entry): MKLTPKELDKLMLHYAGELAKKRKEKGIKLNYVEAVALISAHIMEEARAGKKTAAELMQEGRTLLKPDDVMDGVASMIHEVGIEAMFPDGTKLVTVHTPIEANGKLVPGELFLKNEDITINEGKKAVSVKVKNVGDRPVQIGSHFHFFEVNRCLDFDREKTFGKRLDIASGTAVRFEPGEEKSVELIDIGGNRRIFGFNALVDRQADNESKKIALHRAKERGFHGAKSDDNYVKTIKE
Urease subunit alpha (Helicobacter pylori (strain ATCC 700392 / 26695), UniProt P69997), sequence (P69997 whole entry): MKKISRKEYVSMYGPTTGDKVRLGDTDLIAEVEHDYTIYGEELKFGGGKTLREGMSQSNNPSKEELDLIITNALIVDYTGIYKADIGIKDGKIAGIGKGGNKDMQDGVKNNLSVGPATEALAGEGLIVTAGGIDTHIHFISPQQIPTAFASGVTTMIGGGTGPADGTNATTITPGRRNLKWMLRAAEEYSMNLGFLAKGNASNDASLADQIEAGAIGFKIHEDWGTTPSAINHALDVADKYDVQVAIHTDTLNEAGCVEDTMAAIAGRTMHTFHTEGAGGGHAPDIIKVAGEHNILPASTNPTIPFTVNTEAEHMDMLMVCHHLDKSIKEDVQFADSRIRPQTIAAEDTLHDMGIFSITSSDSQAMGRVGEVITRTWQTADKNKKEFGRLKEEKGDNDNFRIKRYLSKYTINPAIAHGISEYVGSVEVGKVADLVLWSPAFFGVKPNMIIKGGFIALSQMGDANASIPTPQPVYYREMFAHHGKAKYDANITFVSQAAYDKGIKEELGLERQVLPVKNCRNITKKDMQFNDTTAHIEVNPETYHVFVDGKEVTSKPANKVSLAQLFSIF

`NCc1ccccc1` returned an IC50 at Urease subunit alpha [1] of more than 100 µM. On Urease subunit alpha [2], `Cc1cnc(C(=O)O)cn1` [5-Methylpyrazine-2-carboxylic acid] had a 50% inhibitory concentration (IC50) of more than 100 µM. Consider `Cc1ccc(C(=O)O)cc1` [SAMPL4, O2], for which, at Urease subunit alpha [1], the 50% inhibitory concentration (IC50) is more than 100 µM. Take `CC(=O)NO` [acetohydroxamic acid]: at Urease subunit alpha [2], the IC50 turned out to be 42.5 µM.

Broadly, the IC50 is the concentration that inhibits the measured activity by half.
